# Values of other authors, collected in patent US11638700B2, “Iron/shikonin nano-composite and use thereof and method for preparing the same by supermolecular self-assembly” (Jilin University, priority 2020, dated 2023).
# Details: generally considered
structure (smiles),measurement,value
CC(C)=CC[C@@H](O)C1=CC(=O)c2c(O)ccc(O)c2C1=O [shikonin],solubility of shikonin in water,insoluble in water
